Reference: the supplement of paper PMC10307832

How the values were obtained:
Experiment in all cases: relative viability (nuclei count vs DMSO), 5 days (fraction); higher = more cells survive
[1] = compound: CC1(C)CCC(CN2CCN(c3ccc(C(=O)NS(=O)(=O)c4ccc(NCC5CCOCC5)c([N+](=O)[O-])c4)c(Oc4cnc5[nH]ccc5c4)c3)CC2)=C(c2ccc(Cl)cc2)C1 [Venetoclax] + O=C(c1cc(Cc2n[nH]c(=O)c3ccccc23)ccc1F)N1CCN(C(=O)C2CC2)CC1 [Olaparib] (partner 8 µM)
Summary of the method: (§1)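 Lung cancer cell lines in 1536-well plates got either a single drug or a fixed anchor-drug dose together with five library-drug doses (not always all listed) in √10 steps, by pin tool, on the day after seeding. Nuclei were counted after 5 days, and relative viability is the treated-to-vehicle ratio of nuclei counts. Values are medians of duplicate plates.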

[2] = compound: Cn1cnc2c(F)c(Nc3ccc(Br)cc3Cl)c(C(=O)NOCCO)cc21 [Selumetinib] + C[C@]1(O)C[C@@H](c2nc(-c3ccc4ccc(-c5ccccc5)nc4c3)c3c(N)nccn32)C1 [Linsitinib] (partner 1 µM)
Summary of the method: as §1

[3] = compound: Cn1cnc2c(F)c(Nc3ccc(Br)cc3Cl)c(C(=O)NOCCO)cc21 [Selumetinib] + CC(C)C[C@H](NC(=O)[C@H](Cc1ccccc1)NC(=O)c1cnccn1)B(O)O [Bortezomib] (partner 0.002 µM)
Summary of the method: as §1

[4] = compound: CC1(C)CCC(CN2CCN(c3ccc(C(=O)NS(=O)(=O)c4ccc(NCC5CCOCC5)c([N+](=O)[O-])c4)c(Oc4cnc5[nH]ccc5c4)c3)CC2)=C(c2ccc(Cl)cc2)C1 [Venetoclax] + Cc1nc(NC(=O)N2CCC[C@H]2C(N)=O)sc1-c1ccnc(C(C)(C)C(F)(F)F)c1 [Alpelisib] (partner 2 µM)
Summary of the method: as §1

Cell Line | relative viability ([1]; first compound 0.01 µM) | relative viability ([1]; first compound 0.03162 µM) | relative viability ([1]; first compound 0.1 µM) | relative viability ([1]; first compound 0.3162 µM) | relative viability ([1]; first compound 1 µM) | relative viability ([2]; first compound 0.02 µM) | relative viability ([2]; first compound 0.06325 µM) | relative viability ([2]; first compound 0.2 µM) | relative viability ([2]; first compound 0.6325 µM) | relative viability ([3]; first compound 0.02 µM) | relative viability ([3]; first compound 0.06325 µM) | relative viability ([3]; first compound 0.2 µM) | relative viability ([3]; first compound 0.6325 µM) | relative viability ([4]; first compound 0.01 µM) | relative viability ([4]; first compound 0.03162 µM) | relative viability ([4]; first compound 0.1 µM) | relative viability ([4]; first compound 0.3162 µM) | relative viability ([4]; first compound 1 µM)
NCI-H1755 | 0.879 | 0.873 | 0.917 | 0.832 | 0.831 | 0.95 | 0.852 | 0.845 | 0.848 | 0.952 | 0.859 | 0.834 | 0.914 | 0.968 | 0.912 | 0.842 | 0.962 | 0.893
LOU-NH91 | 0.821 | 0.88 | 0.965 | 0.919 | 0.856 | 0.773 | 0.846 | 0.783 | 0.727 | 0.465 | 0.479 | 0.476 | 0.479 | 0.653 | 0.802 | 0.689 | 0.791 | 0.759
SK-LU-1 | 0.447 | 0.665 | 0.477 | 0.574 | 0.623 | 0.897 | 1.06 | 0.903 | 0.625 | 1.25 | 1.28 | 0.918 | 0.715 | 0.899 | 1.15 | 0.855 | 0.981 | 0.854
BEN | 1.07 | 1.21 | 0.97 | 1.1 | 1.02 | 0.879 | 0.898 | 0.745 | 0.8 | 0.779 | 0.854 | 0.686 | 0.834 | 0.976 | 1.07 | 0.756 | 1.06 | 1.01
NCI-H1734 | 0.598 | 0.656 | 0.662 | 0.634 | 0.634 | 0.862 | 0.849 | 0.865 | 0.816 | 1.04 | 0.819 | 1.02 | 0.835 | 0.682 | 0.732 | 0.624 | 0.628 | 0.689
LCLC-103H | 0.778 | 0.846 | 0.783 | 0.787 | 0.752 | 1.04 | 0.952 | 0.804 | 0.968 | 1.01 | 1.06 | 0.993 | 0.978 | 1.04 | 0.983 | 1.04 | 1 | 0.974
COR-L 105 | 0.518 | 0.718 | 0.709 | 0.691 | 0.674 | 1 | 0.828 | 0.606 | 0.623 | 0.813 | 0.477 | 0.609 | 0.567 | 0.983 | 0.959 | 1.13 | 0.91 | 1.02
NCI-H2009 | 0.662 | 0.729 | 0.681 | 0.655 | 0.586 | 1.07 | 0.842 | 0.562 | 0.489 | 0.788 | 0.591 | 0.538 | 0.362 | 1.1 | 1.15 | 1.16 | 1.11 | 1.07
Calu-6 | 0.609 | 0.619 | 0.602 | 0.554 | 0.546 | 1.03 | 0.77 | 0.522 | 0.362 | 1.07 | 0.792 | 0.648 | 0.558 | 0.946 | 0.917 | 0.98 | 1.02 | 0.998
NCI-H2023 | 0.425 | 0.498 | 0.453 | 0.561 | 0.455 | 0.583 | 0.546 | 0.466 | 0.576 | 0.899 | 0.785 | 0.895 | 0.896 | 0.574 | 0.573 | 0.544 | 0.553 | 0.551
SW 1573 | 0.581 | 0.516 | 0.479 | 0.473 | 0.399 | 0.779 | 0.642 | 0.683 | 0.596 | 1.01 | 0.86 | 0.802 | 0.932 | 0.74 | 0.754 | 0.632 | 0.758 | 0.681
NCI-H2405 | 0.833 | 0.881 | 0.915 | 0.929 | 0.78 | 0.77 | 0.575 | 0.546 | 0.392 | 0.971 | 0.928 | 0.858 | 0.744 | 0.833 | 0.751 | – | 0.82 | 0.705
HCC-44 | 1.05 | 1.01 | 0.919 | 0.971 | 0.983 | 0.701 | 0.639 | 0.539 | 0.575 | 0.993 | 0.882 | 0.945 | 0.971 | 0.795 | 0.745 | 0.64 | 0.754 | 0.705
EMC-BAC-2 | 0.503 | 0.554 | 0.5 | 0.497 | 0.471 | 0.732 | 0.668 | 0.707 | 0.743 | 1.06 | 1.07 | 1.01 | 0.999 | 0.707 | 0.744 | 0.747 | 0.73 | 0.687
NCI-H322M | 0.738 | 0.799 | 0.76 | 0.764 | 0.785 | 0.717 | 0.608 | 0.67 | 0.626 | 1.05 | 1.22 | 1.01 | 0.98 | 0.918 | 0.881 | 0.836 | 0.764 | 0.752
H3255 | 0.626 | 0.576 | 0.545 | 0.597 | 0.566 | 0.974 | 0.899 | 0.918 | 0.825 | 0.82 | 0.801 | 0.761 | 0.962 | 0.702 | 0.671 | 0.686 | 0.891 | 0.686
EBC-1 | 0.636 | 0.77 | 0.662 | 0.647 | 0.662 | 0.917 | 0.844 | 0.933 | 0.518 | 0.759 | 0.625 | 0.578 | 0.304 | 0.815 | 0.869 | 0.806 | 0.831 | 0.875
